Marks after values point to notes of the source that are not given here.

One data set concerns PC12-HS cells. The data set is described as follows: Apoptosis induced by amyloid β fragment, Hoechst 33258 staining. As to conditions: 50 μM amyloid β fragment, NK-4 200 ng/ml. The format is cell-based, rat. Here is the method: A plurality of peptide fragments (called “AMYLOID β FRAGMENT” commercialized by AnaSpec, Inc., CA, USA, each peptide having the amino acid sequence of SEQ ID NO:1), which have an amino acid sequence positioning from 25th to 35th from the N-terminus of amyloid R peptide with human origin and have been recognized as a main factor of neurocyte death in Alzheimer's disease, were diluted with phosphate buffered saline (PBS) to give a concentration of 2 mM, and used after being aged at 37° C. for six hours to coagulate them to increase their cytotoxicity before use. […] Viability (%) of cells in each well was determined and shown in Table 1 by calculating a relative value when the fluorescent intensity of the control was regarded as 100%. […] Thereafter, the cells were stained with […] Hoechst 33258 dye commercialized by SIGMA Corporation, Tokyo, Japan, for five min, observed at a magnitude corresponding to a visual filed containing about 100 cells under a phase contrast microscope and a fluorescent microscope, and counted. The occupied percentage (%) of cells with apoptosis against the total cells in one visual field was calculated and the data was also shown in Table 1. […]

For the next data set, the system named is SAPK/JNK. The data set is described as follows: Phosphorylation of SAPK/JNK by hydrogen-peroxide-induced cell injury. The format is cell-based.
Data set [1] has as its system C57BL/6J mice with cerebrovascular dementia. As to the kind of experiment: Novelty object recognition test, mouse with cerebrovascular dementia (ligation of right common carotid artery). As to conditions: for Object discrimination index: mice with ligation of right common carotid artery, NK-4 i.p. five days a week. The format is in vivo.

On to `CCN1C=CC(=CC=C(C=Cc2cc[n+](CC)c3ccccc23)c2cc[n+](CC)c3ccccc23)c2ccccc21.[I-].[I-]` [NK-4], for which the “Percentage of appoptosis-induced cells (%) Amyloid β fragment” value in the data set on PC12-HS cells is recorded as 13 ** %. In addition, the “phosphorylation of SAPK/JNK” value in the data set on SAPK/JNK is listed as “inhibits the phosphorylation of SAPK/JNK”. In data set [1] (mice with cerebrovascular dementia, i.p. five days a week), the adverse effect entry is “No adverse effect”. Besides, the Object discrimination index is 0.51 ± 0.22 in data set [1] (On the 3rd week after operation) and 0.31 ± 0.20 in data set [1] (On the 4th week after operation).

Source of the values: patent publication US20120035187A1 (priority 2009, published 2012).
